Results: ChEMBL document CHEMBL4828738, “Design, synthesis and evaluation of novel 5-phenylthiophene derivatives as potent fungicidal of Candida albicans and antifungal reagents of fluconazole-resistant fungi” (Eur J Med Chem, 2021)
Values after ≈ are worked out from the molar mass of the structure shown.

How the values were obtained:
Candida albicans [1] = assay: Antifungal activity against Candida albicans ATCC SC5314 assessed as fungal growth inhibition by CLSI protocol based method; assay type: functional
Candida albicans [2] = assay: Antifungal activity against Candida albicans CPCC400616 assessed as fungal growth inhibition by CLSI protocol based method; assay type: functional
Candida tropicalis = assay: Antifungal activity against Candida tropicalis CGMCC 2.3739 assessed as fungal growth inhibition by CLSI protocol based method; assay type: functional
Cryptococcus neoformans = assay: Antifungal activity against Cryptococcus neoformans CGMCC2.3161 assessed as fungal growth inhibition by CLSI protocol based method; assay type: functional
Candida parapsilosis = assay: Antifungal activity against Candida parapsilosis GIM2.190 assessed as fungal growth inhibition by CLSI protocol based method; assay type: functional; details: Lodderomyces parapsilosis
Nakaseomyces glabratus = assay: Antifungal activity against Candida glabrata assessed as fungal growth inhibition by CLSI protocol based method; assay type: functional
Pichia kudriavzevii = assay: Antifungal activity against Candida krusei GIM2.1 assessed as fungal growth inhibition by CLSI protocol based method; assay type: functional
Candida albicans [3] = assay: Antifungal activity against fluconazole-resistant Candida albicans 901 assessed as fungal growth inhibition by CLSI protocol based method
Candida albicans [4] = assay: Antifungal activity against fluconazole-resistant Candida albicans 904 assessed as fungal growth inhibition by CLSI protocol based method
Candida albicans [5] = assay: Antifungal activity against fluconazole-resistant Candida albicans 632 assessed as fungal growth inhibition by CLSI protocol based method
Candida albicans [6] = assay: Antifungal activity against fluconazole-resistant Candida albicans 100 assessed as fungal growth inhibition by CLSI protocol based method
Candida albicans [7] = assay: Antifungal activity against fluconazole-resistant Candida albicans 103 assessed as fungal growth inhibition by CLSI protocol based method
Candida albicans [8] = assay: Antifungal activity against fluconazole-resistant Candida albicans 311 assessed as fungal growth inhibition by CLSI protocol based method

Structure (SMILES) | MIC (Candida albicans [1]) [µg/mL] | MIC (Candida albicans [2]) [µg/mL] | MIC (Candida tropicalis) [µg/mL] | MIC (Cryptococcus neoformans) [µg/mL] | MIC (Candida parapsilosis) [µg/mL] | MIC (Nakaseomyces glabratus) [µg/mL] | MIC (Pichia kudriavzevii) [µg/mL] | MIC (Candida albicans [3]) [µg/mL] | MIC (Candida albicans [4]) [µg/mL] | MIC (Candida albicans [5]) [µg/mL] | MIC (Candida albicans [6]) [µg/mL] | MIC (Candida albicans [7]) [µg/mL] | MIC (Candida albicans [8]) [µg/mL]
O=C(NC(Cn1ccnc1)C(=O)c1ccccc1)c1nc2ccc(Br)cc2s1 (stereo unspecified) | 32 (≈ 70.3 µM) | > 64 | > 64 | > 64 | > 64 | > 64 | > 64 |  |  |  |  |  | 
O=C(NC(Cn1ccnc1)C(=O)c1ccc(F)cc1)c1ccc(-c2ccc(Cl)cc2)s1 (stereo unspecified) | 0.06 (≈ 0.132 µM) | 0.25 (≈ 0.551 µM) | 2 (≈ 4.41 µM) | > 64 | > 64 | 1 (≈ 2.2 µM) | > 64 | 8 (≈ 17.6 µM) | 16 (≈ 35.2 µM) | 4 (≈ 8.81 µM) | 4 (≈ 8.81 µM) | 8 (≈ 17.6 µM) | 4 (≈ 8.81 µM)
O=C(NC(Cn1ccnc1)C(=O)c1ccccc1)c1ccc2ccccc2c1 (stereo unspecified) | 0.5 (≈ 1.35 µM) | 2 (≈ 5.41 µM) | 0.5 (≈ 1.35 µM) | 32 (≈ 86.6 µM) | > 64 | > 64 | > 64 |  |  |  |  |  | 
O=C(NC(Cn1ccnc1)C(=O)c1ccccc1)c1noc2c1CCc1ccccc1-2 (stereo unspecified) | 8 (≈ 19.4 µM) | 8 (≈ 19.4 µM) | 4 (≈ 9.7 µM) | 16 (≈ 38.8 µM) | 32 (≈ 77.6 µM) | 16 (≈ 38.8 µM) | > 64 |  |  |  |  |  | 
O=C(NC(Cn1ccnc1)C(=O)c1ccccc1)c1ccc(-c2ccc(C(F)(F)F)cc2)s1 (stereo unspecified) | 0.125 (≈ 0.266 µM) | 2 (≈ 4.26 µM) | 0.125 (≈ 0.266 µM) | > 64 | 4 (≈ 8.52 µM) | 8 (≈ 17 µM) | 16 (≈ 34.1 µM) | 4 (≈ 8.52 µM) | 2 (≈ 4.26 µM) | > 64 | > 64 | 2 (≈ 4.26 µM) | 4 (≈ 8.52 µM)
O=C(NC(Cn1ccnc1)C(=O)c1ccccc1)c1ccc(-c2ccccc2)s1 (stereo unspecified) | 0.5 (≈ 1.25 µM) | 0.5 (≈ 1.25 µM) | 1 (≈ 2.49 µM) | 8 (≈ 19.9 µM) | 0.5 (≈ 1.25 µM) | 2 (≈ 4.98 µM) | 32 (≈ 79.7 µM) | 4 (≈ 9.96 µM) | 4 (≈ 9.96 µM) | 8 (≈ 19.9 µM) | 4 (≈ 9.96 µM) | 4 (≈ 9.96 µM) | 8 (≈ 19.9 µM)
O=C(NC(Cn1ccnc1)C(=O)c1ccccc1)c1ccc(-c2ccccc2Cl)s1 (stereo unspecified) | > 64 | > 64 | > 64 | > 64 | > 64 | > 64 | > 64 |  |  |  |  |  | 
O=C(NC(Cn1ccnc1)C(=O)c1ccccc1)c1ccc(-c2ccc(F)cc2F)s1 (stereo unspecified) | 8 (≈ 18.3 µM) | > 64 | > 64 | > 64 | > 64 | > 64 | > 64 |  |  |  |  |  | 
O=C(NC(Cn1ccnc1)C(=O)c1ccccc1)c1cc2ccccc2s1 (stereo unspecified) | > 64 | > 64 | > 64 | > 64 | > 64 | > 64 | > 64 |  |  |  |  |  | 
COc1ccc(-c2ccc(C(=O)NC(Cn3ccnc3)C(=O)c3ccccc3)s2)cc1 (stereo unspecified) | 0.125 (≈ 0.29 µM) | 1 (≈ 2.32 µM) | 2 (≈ 4.63 µM) | > 64 | > 64 | > 64 | > 64 | 2 (≈ 4.63 µM) | 4 (≈ 9.27 µM) | 8 (≈ 18.5 µM) | 2 (≈ 4.63 µM) | 4 (≈ 9.27 µM) | 4 (≈ 9.27 µM)
O=C(NC(Cn1ccnc1)C(=O)c1ccc(F)cc1F)c1ccc(-c2ccc(Cl)cc2)s1 (stereo unspecified) | 0.5 (≈ 1.06 µM) | > 64 | > 64 | 2 (≈ 4.24 µM) | > 64 | > 64 | > 64 |  |  |  |  |  | 
O=C(NC(Cn1ccnc1)C(=O)c1ccccc1)c1ccc(-c2ccc(OC(F)(F)F)cc2)s1 (stereo unspecified) | 0.5 (≈ 1.03 µM) | 16 (≈ 33 µM) | 32 (≈ 65.9 µM) | > 64 | > 64 | > 64 | > 64 |  |  |  |  |  | 
COc1ccc(C(=O)C(Cn2ccnc2)NC(=O)c2ccc(-c3ccc(Cl)cc3)s2)cc1 (stereo unspecified) | < 0.03 | 0.125 (≈ 0.268 µM) | 0.06 (≈ 0.129 µM) | > 64 | > 64 | 4 (≈ 8.58 µM) | 8 (≈ 17.2 µM) | 8 (≈ 17.2 µM) | 16 (≈ 34.3 µM) | 8 (≈ 17.2 µM) | 4 (≈ 8.58 µM) | 8 (≈ 17.2 µM) | 4 (≈ 8.58 µM)
O=C(NC(Cn1ccnc1)C(=O)c1ccc(OC(F)(F)F)cc1)c1ccc(-c2ccc(Cl)cc2)s1 (stereo unspecified) | 32 (≈ 61.5 µM) | 32 (≈ 61.5 µM) | > 64 | > 64 | > 64 | > 64 | > 64 |  |  |  |  |  | 
CCOc1ccc(-c2ccc(C(=O)NC(Cn3ccnc3)C(=O)c3ccccc3)s2)cc1 (stereo unspecified) | > 64 | > 64 | > 64 | > 64 | > 64 | > 64 | > 64 |  |  |  |  |  | 
O=C(NC(Cn1ccnc1)C(=O)c1ccccc1)c1ccc(-c2ccccc2)o1 (stereo unspecified) | 16 (≈ 41.5 µM) | 16 (≈ 41.5 µM) | > 64 | > 64 | > 64 | > 64 | > 64 |  |  |  |  |  | 
O=C(NC(Cn1ccnc1)C(=O)c1ccccc1)c1ccc(-c2ccc(F)cc2)s1 (stereo unspecified) | 1 (≈ 2.38 µM) | 32 (≈ 76.3 µM) | 32 (≈ 76.3 µM) | > 64 | > 64 | > 64 | > 64 |  |  |  |  |  | 
N#Cc1ccc(-c2ccc(C(=O)NC(Cn3ccnc3)C(=O)c3ccccc3)s2)cc1 (stereo unspecified) | > 64 | > 64 | > 64 | > 64 | > 64 | > 64 | > 64 |  |  |  |  |  | 
O=C(NC(Cn1ccnc1)C(=O)c1ccccc1)c1ccc(N2CCN(c3ccccc3)CC2)cc1 (stereo unspecified) | > 64 | > 64 | > 64 | > 64 | > 64 | > 64 | > 64 |  |  |  |  |  | 
O=C(NC(Cn1ccnc1)C(=O)c1ccccc1)c1cnc(-c2ccccc2)o1 (stereo unspecified) | 32 (≈ 82.8 µM) | 64 (≈ 166 µM) | > 64 | > 64 | > 64 | > 64 | > 64 |  |  |  |  |  | 
O=C(NC(Cn1ccnc1)C(=O)c1ccccc1)c1ccc(-c2ccc(Cl)cc2)s1 (stereo unspecified) | 0.125 (≈ 0.287 µM) | 0.125 (≈ 0.287 µM) | 0.125 (≈ 0.287 µM) | > 64 | 0.25 (≈ 0.573 µM) | 1 (≈ 2.29 µM) | 4 (≈ 9.18 µM) | 4 (≈ 9.18 µM) | 4 (≈ 9.18 µM) | 4 (≈ 9.18 µM) | 2 (≈ 4.59 µM) | 4 (≈ 9.18 µM) | 2 (≈ 4.59 µM)
O=C(NC(Cn1ccnc1)C(=O)c1ccccc1)c1ccc(-c2cccc(F)c2)s1 (stereo unspecified) | 8 (≈ 19.1 µM) | 64 (≈ 153 µM) | > 64 | > 64 | > 64 | > 64 | > 64 |  |  |  |  |  | 
O=C(NC(Cn1ccnc1)C(=O)c1ccccc1)c1ccc(-c2ccc(Cl)cc2Cl)s1 (stereo unspecified) | > 64 | > 64 | > 64 | > 64 | > 64 | > 64 | > 64 |  |  |  |  |  | 
Cc1ccc(-c2ccc(C(=O)NC(Cn3ccnc3)C(=O)c3ccccc3)s2)cc1 (stereo unspecified) | 0.125 (≈ 0.301 µM) | 1 (≈ 2.41 µM) | 2 (≈ 4.81 µM) | > 64 | 8 (≈ 19.3 µM) | > 64 | > 64 |  |  |  |  |  | 
O=C(NC(Cn1ccnc1)C(=O)c1cccc(Cl)c1)c1ccc(-c2ccc(Cl)cc2)s1 (stereo unspecified) | < 0.03 | 0.25 (≈ 0.531 µM) | 1 (≈ 2.13 µM) | > 64 | 0.5 (≈ 1.06 µM) | 0.5 (≈ 1.06 µM) | > 64 | 8 (≈ 17 µM) | > 64 | > 64 | 2 (≈ 4.25 µM) | 4 (≈ 8.5 µM) | 4 (≈ 8.5 µM)
O=C(NC(Cn1ccnc1)C(=O)c1ccccc1)c1ccc(-c2ccsc2)cc1 (stereo unspecified) | 1 (≈ 2.49 µM) | 2 (≈ 4.98 µM) | 2 (≈ 4.98 µM) | 8 (≈ 19.9 µM) | > 64 | > 64 | 16 (≈ 39.9 µM) |  |  |  |  |  | 
O=C(NC(Cn1ccnc1)C(=O)c1ccccc1)c1cc2ccccc2o1 (stereo unspecified) | > 64 | > 64 | > 64 | > 64 | > 64 | > 64 | > 64 |  |  |  |  |  | 
O=C(NC(Cn1ccnc1)C(=O)c1ccccc1)c1ccc(-c2cccc(Cl)c2)s1 (stereo unspecified) | 16 (≈ 36.7 µM) | 32 (≈ 73.4 µM) | 32 (≈ 73.4 µM) | > 64 | > 64 | > 64 | > 64 |  |  |  |  |  | 
O=C(NC(Cn1ccnc1)C(=O)c1ccccc1F)c1ccc(-c2ccc(Cl)cc2)s1 (stereo unspecified) | 0.06 (≈ 0.132 µM) | 0.06 (≈ 0.132 µM) | > 64 | 2 (≈ 4.41 µM) | > 64 | > 64 | 1 (≈ 2.2 µM) | 2 (≈ 4.41 µM) | > 64 | > 64 | > 64 | 4 (≈ 8.81 µM) | 8 (≈ 17.6 µM)
